These results are taken from publication PMC6187632, “A glutaredoxin domain fused to the radical-generating subunit of ribonucleotide reductase (RNR) functions as an efficient RNR reductant” (The Journal of Biological Chemistry, 2018).

Data set [1] addresses T1, F. ignava RNR holoenzyme (NrdA + NrdB) (Falseniella ignava, UniProt K1LAT4).
T1 construct: gene HMPREF9707_01368; E. coli BL21(DE3); active complex alpha2beta2; with Ribonucleoside-diphosphate reductase subunit alpha
T1 sequence (K1LAT4 1-496): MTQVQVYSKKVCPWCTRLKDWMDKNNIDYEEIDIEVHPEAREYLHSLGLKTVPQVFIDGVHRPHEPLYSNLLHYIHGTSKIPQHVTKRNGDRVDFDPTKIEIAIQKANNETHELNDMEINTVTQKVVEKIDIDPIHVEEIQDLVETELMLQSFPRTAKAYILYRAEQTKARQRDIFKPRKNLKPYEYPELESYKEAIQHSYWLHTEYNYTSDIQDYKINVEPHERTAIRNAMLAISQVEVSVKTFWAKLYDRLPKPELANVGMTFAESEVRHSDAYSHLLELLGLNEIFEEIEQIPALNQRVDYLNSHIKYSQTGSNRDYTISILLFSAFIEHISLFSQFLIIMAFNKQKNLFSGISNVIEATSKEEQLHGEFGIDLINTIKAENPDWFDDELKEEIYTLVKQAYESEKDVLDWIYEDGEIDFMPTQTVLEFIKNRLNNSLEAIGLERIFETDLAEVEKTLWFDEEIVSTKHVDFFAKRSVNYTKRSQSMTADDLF
T1 sequence (K1MC37 1-567 partner): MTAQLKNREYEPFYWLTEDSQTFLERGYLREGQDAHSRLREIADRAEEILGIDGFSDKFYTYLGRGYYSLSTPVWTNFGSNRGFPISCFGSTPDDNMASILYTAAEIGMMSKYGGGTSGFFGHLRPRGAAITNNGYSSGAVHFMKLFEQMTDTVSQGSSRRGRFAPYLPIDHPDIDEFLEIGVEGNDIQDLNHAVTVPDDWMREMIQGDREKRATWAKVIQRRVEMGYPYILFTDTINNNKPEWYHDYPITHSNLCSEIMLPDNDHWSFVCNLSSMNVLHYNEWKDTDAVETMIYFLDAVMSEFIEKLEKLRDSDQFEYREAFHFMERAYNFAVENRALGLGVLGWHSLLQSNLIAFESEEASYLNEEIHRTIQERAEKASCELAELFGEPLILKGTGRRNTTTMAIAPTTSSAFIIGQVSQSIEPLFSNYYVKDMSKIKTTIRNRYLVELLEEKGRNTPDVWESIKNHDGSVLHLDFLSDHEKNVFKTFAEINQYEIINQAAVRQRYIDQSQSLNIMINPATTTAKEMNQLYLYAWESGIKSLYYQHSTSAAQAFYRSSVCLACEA
Put plainly: RNR activity (dGDP formation by HPLC). In kind it is biochemical.

Data set [2] deals with T2, heterologous F. ignava NrdA/L. blandensis NrdB holoenzyme (Leeuwenhoekiella blandensis, UniProt A3XHF9).
T2 construct: gene MED217_17135; mixed-species complex; F. ignava NrdA His6-tagged, E. coli; with Ribonucleoside-diphosphate reductase subunit alpha (Falseniella ignava CCUG 37419)
T2 sequence (A3XHF9 1-427): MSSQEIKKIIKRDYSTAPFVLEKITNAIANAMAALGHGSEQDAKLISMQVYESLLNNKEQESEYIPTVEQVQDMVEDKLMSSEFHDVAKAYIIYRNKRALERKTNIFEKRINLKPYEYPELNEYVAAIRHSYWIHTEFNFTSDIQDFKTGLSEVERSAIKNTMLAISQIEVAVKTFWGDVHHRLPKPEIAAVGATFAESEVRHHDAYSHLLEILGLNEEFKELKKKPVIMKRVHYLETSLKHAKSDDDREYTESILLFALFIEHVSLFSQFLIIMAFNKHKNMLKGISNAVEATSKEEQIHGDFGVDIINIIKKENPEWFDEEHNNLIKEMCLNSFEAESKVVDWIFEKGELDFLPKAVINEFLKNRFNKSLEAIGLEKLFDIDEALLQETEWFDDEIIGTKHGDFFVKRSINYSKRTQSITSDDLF
T2 sequence (K1MC37 1-567 partner): T1 sequence (K1MC37 1-567 partner)
Put plainly: RNR activity (dGDP formation by HPLC). In kind it is biochemical. Particulars: GDP substrate, 2 mM dTTP, pH 8, room temperature; allosteric inhibition via L. blandensis NrdB ATP cone.

The target in data set [3] is T3, F. ignava NrdB (Grx::NrdB fusion protein, NrdBi) (Falseniella ignava, UniProt K1LAT4).
T3 construct: gene HMPREF9707_01368; full-length 496-residue fusion (Grx 4-61, ATP cone 84-169, NrdB core); E. coli BL21(DE3); dimer-tetramer equilibrium
Put plainly: biochemical. The class given is binding.

The target in data set [4] is T1, F. ignava RNR holoenzyme (NrdA + NrdB). Kind of data set: RNR activity. The class given is biochemical. The settings on record: weaker inhibition than dATP; ATP cone of NrdB.
The target of data set [5] is Facklamia ignava NrdBΔGrx (NrdB lacking the Grx domain) (Facklamia ignava). Kind of data set: GEMMA (gas-phase electrophoretic macromolecule analysis); NrdB deletion proteins analysed with and without 50 uM dATP (the text does not tell the two conditions apart); 20 mM ammonium acetate pH 7.8, 1 mM DTT, 0.005% Tween 20; step: dimers to tetramer.
The target in data set [6] is T3, F. ignava NrdB (Grx::NrdB fusion protein, NrdBi). Put plainly: glutaredoxin activity, NADPH consumption at […] nm (GSH reductase coupled). In kind it is biochemical. The settings on record: 4 mM GSH, 0.4 mM NADPH, pH 8.0, room temperature; Grx domain; artificial substrate.
Data set [7] has as its target T4, F. ignava NrdB (Grx::NrdB fusion protein, NrdBi) (Falseniella ignava, UniProt K1LAT4, C15S).
T4 construct: gene HMPREF9707_01368; full-length 496-residue fusion (Grx 4-61, ATP cone 84-169, NrdB core); E. coli BL21(DE3); dimer-tetramer equilibrium
The data set is described as above. The class given is biochemical. The settings on record: 4 mM GSH, 0.4 mM NADPH, pH 8.0, room temperature; Grx domain, monothiol mechanism.

Data set [8] concerns the molecule itself. Kind of data set: SEC; Superdex 200 10/300, no effector; 50 mM KCl, 10 mM MgCl2, 0.1 mM DTT, 50 mM Tris-HCl pH 7.6, room temperature; NrdA 5 and 10 uM, NrdB 1.25-10 uM, mixture 10 uM of each.
Data set [9] concerns the molecule itself. Put plainly: GEMMA (gas-phase electrophoretic macromolecule analysis); no effector; 0.05 mg/ml protein (0.025 mg/ml of each in mixtures), 20 mM ammonium acetate pH 7.8, 1 mM DTT, 0.005% Tween 20, room temperature.
Data set [10] concerns the molecule itself. Kind of data set: SEC; Superdex 200 10/300, 0.1 mM dATP in the mobile phase; 50 mM KCl, 10 mM MgCl2, 0.1 mM DTT, 50 mM Tris-HCl pH 7.6, room temperature; single subunits 5 and 10 uM, mixture 10 and 20 uM of each.

With `Nc1ncnc2c1ncn2[C@H]1C[C@H](O)[C@@H](COP(=O)(O)OP(=O)(O)OP(=O)(O)O)O1` [dATP], the results for the Ki in data set [1] and in data set [2] were 1.3 ± 0.23 µM and roughly 70 µM, respectively. In data set [3], the affinity, expressed as Kd, was 0.4 µM. In turn, `Nc1ncnc2c1ncn2[C@@H]1O[C@H](COP(=O)(O)OP(=O)(O)OP(=O)(O)O)[C@@H](O)[C@H]1O` [ATP] gave a Kd in data set [3] of 6.8 µM.

In data set [3], `Nc1ncnc2c1ncn2[C@H]1C[C@H](O)[C@@H](COP(=O)(O)OP(=O)(O)O)O1` [dADP] gave a Kd of 5.8 µM. For the same molecule, the RNR activity result in data set [4] is given as “Titration with dADP inhibited the WT enzyme activity (Fig. S2)”.

As for “Facklamia ignava NrdBΔGrx (NrdB lacking the Grx domain) (domain or fragment)”, the stoichiometry N in data set [5] turned out to be 4. For `OCCSSCCO` [2-hydroxyethyl disulfide], the Km in [6] was found to be 600 ± 90 µM; in [7], 1300 ± 240 µM.

B1: Facklamia ignava NrdA (NrdAi) (enzyme, UniProt K1MC37 1-567, looked up)
chain: T1 sequence (K1MC37 1-567 partner)
notes: NrdA (NrdAi), catalytic subunit of the class I ribonucleotide reductase of Facklamia ignava CCUG 37419; amplified from genomic DNA with primers from the start ATG to the stop codon; a thrombin cleavage site follows the His6 tag; the form rests on the printed primers (ATG to stop); source: E. coli BL21(DE3), pET-28a(+), purified (HisTrap nickel-Sepharose, Superdex 200, phenyl-Sepharose)
In the case of B1, the “stoichiometry N” value in data set [8] stood at 2.

B2: Facklamia ignava NrdB (Grx::ATP-cone::NrdB fusion protein, NrdBi) (enzyme, UniProt K1LAT4 1-496, looked up)
chain: T1 sequence (K1LAT4 1-496)
notes: NrdB (NrdBi) of Facklamia ignava CCUG 37419, 496 residues: Grx domain (residues 4-61), ATP cone (residues 84-169), then the NrdB proper; amplified from genomic DNA with primers from the start ATG to the stop codon; a thrombin cleavage site follows the His6 tag; Expressed with 0.5 mM MnSO4; holds a Mn(III)/Mn(IV) cofactor; Dimer or tetramer by condition; also called WT NrdB; source: E. coli …
Regarding B2, the entries for the “stoichiometry N” value in data set [9] and in data set [10] were 2 and 4, respectively.

A word on the Ki: it is a measure of affinity in units of concentration, obtained from inhibition or displacement. What is called Kd is the constant that tells how readily two partners part at equilibrium. A lower Kd goes with tighter binding. For orientation: stoichiometry N means a count of units in the complex or per binding partner. By Km is commonly meant the substrate concentration at which the rate is half of its maximum.
